Three compounds from ChEMBL document CHEMBL1138745, “Structural basis for the potent antisickling effect of a novel class of five-membered heterocyclic aldehydic compounds” (2004) can be followed below.

Broadly, the inhibition is how much of the control response was suppressed.

Holding throughout (assay type): functional
What all share (settings): Homo sapiens

The nature of assay [1]: Percent inhibition of sickling of sickle red blood (SS) cells under 4% oxygen was evaluated at 1 mM concentration.
Assay [2] in a line: Percent inhibition of sickling of sickle red blood (SS) cells under 4% oxygen was evaluated at 2 mM concentration.
The nature of assay [3]: Percent inhibition of sickling of sickle red blood (SS) cells under 4% oxygen was evaluated at 5 mM concentration.

In assay [1], `O=Cc1ccc(CO)o1` [AES-103] had an inhibition at 1000 µM of 13%. Further, in assay [2], 2000 µM produced 42% inhibition. In assay [3], this compound had an inhibition at 5000 µM of 90%.
On to `O=Cc1ccco1` [FURFURAL], for which, in assay [1], at 1000 µM the inhibition was 0%. Further, the inhibition at 2000 µM in assay [2] was found to be 0%. The compound further yielded an inhibition at 5000 µM in assay [3] of 30%.
`COc1cc(C=O)ccc1O` [VANILLIN] gave an inhibition at 5000 µM in assay [3] of 20%.
